Source: US20250282785A1, “PYRROLIDINONE DERIVATIVES AS INHIBITORS OF NF KAPPA B INDUCING KINASE” (priority 2022, published 2025)

Key:
[1] = tested on: p-IKKα levels in L363 (NIK translocated multiple myeloma) cells; assay: Effect of compounds on p-IKKα levels in L363 cells (AlphaLISA SureFire Ultra); assay type: cell-based; details: Homo sapiens, L-363; L363 cells, BAFF stimulated, MG132, 6 h; average of values; read-out: Assay 2 IC50
Method: Biological Assay 2: Effect of Compounds on p-IKKα Levels in L363 (NIK Translocated Multiple Myeloma) Cells
All compounds tested were dissolved and serially diluted in DMSO, 1:3 dilution for 11 points in an Echo compatible plate. 100% DMSO is added to columns 12 and 24 of the plate to serve as high and low signal controls. This compound plate was used to spot 20 nl of compound or DMSO into a Greiner 384 well TC plate (781080). Final DMSO concentration was […] (v/v) in cell assays. Human L363 cells (ATCC) were cultured in RPMI 1640 medium supplemented with GlutaMax, non-essential amino acids, sodium pyruvate and 10% fetal bovine serum. Cells were routinely maintained at densities of 0.2×10^6 cells per ml −2×10^6 cells per ml at 37° C. in a humidified 5% CO2 atmosphere incubator. Cells were passaged twice a week splitting back to obtain the low density. The day before the assay, cells were washed twice in HBSS, resuspended in DMEM+0.5% IgG and protease free BSA (Jackson Immuno Research Laboratories), +/−250 ng/ml recombinant human B-cell activating factor (BAFF/BLyS/TNFSF13B) and incubated overnight at 37° C. in a humidified 5% CO2 atmosphere (bulk stimulation with or without BAFF). The next day, cell concentration was adjusted to 1×10^7 cells/ml in DMEM+/−250 ng/ml BAFF+/−10 uM MG132 and plated at 10 ul/well into compound or DMSO spotted 384 well TC plates. Seeded cells were incubated at 37° C. in a humidified 5% CO2 atmosphere for 6 h. After 6 h, plates were removed from the incubator and cell lysis was achieved by the addition of 2.5 μl 5× lysis buffer containing protease and phosphatase inhibitors, followed by shaking on a plate shaker at room temperature for 15 min. At the end of this incubation, lysed cells were sequentially treated and incubated with acceptor and donor bead mixes according to the manufacturer's protocol for a 1 plate/2-incubation suspension cell assay (AlphaLISA SureFire Ultra p-IKKα (Ser 176/180) Assay Kit (Perkin ElmeR). Plates were read using an EnVision® Multilabel Plate Reader (Perkin ElmeR). Within an experiment, a concentration response curve for each compound was run in duplicate. Signal obtained in the test wells was normalized using high signal (BAFF stimulated cells, DMSO, MG132) and low signal (unstimulated cells, DMSO) controls. To determine the IC50, a sigmoidal curve was fitted to the plot of % inhibition versus Log10 compound concentration.

[2] = target: Recombinant Human NF-Kappab-Inducing Kinase (NIK/MAP3K14) (Homo sapiens, UniProt Q99558); assay: Inhibition of auto-phosphorylation of recombinant human NIK/MAP3K14 (AlphaScreen); assay type: biochemical; details: NIK/MAP3K14 auto-phosphorylation, 5 microM ATP, 1 nM enzyme, 2 h at 25° C.; average of values; read-out: Assay 1 IC50
Method: Biological Assay 1: Inhibition of Auto-Phosphorylation of Recombinant Human NF-Kappab-Inducing Kinase (NIK/MAP3K14) Activity (AlphaScreen®)
NIK/MAP3K14 auto-phosphorylation activity was measured using the AlphaScreen® ((αscreen) format (Perkin ElmeR). All compounds tested were dissolved in dimethyl sulfoxide (DMSO) and further dilutions were made in assay buffer. Final DMSO concentration was 0.7% (v/v) in assays. Assay buffer was 50 mM Tris pH 7.5 containing 1 mM EGTA (ethylene glycol tetraacetic acid), 1 mM DTT (dithiothreitol), 0.1 mM Na3VO4, 5 mM MgCl2, 0.01% Tween® 20. Assays were carried out in 384 well Proxiplates (Perkin ElmeR). Incubations consisted of compound, 5 microM Adenosine-5′-triphosphate (ATP), and 1 nM NIK/MAP3K14. Incubations were initiated by addition of GST-tagged NIK/MAP3K14 enzyme, carried out for 2 h at 25° C. and terminated by addition of stop buffer containing anti-phospho-IKK Ser176/180 antibody. Protein A Acceptor and Glutathione-donor beads were added before reading using an EnVision® Multilabel Plate Reader (Perkin ElmeR). Signal obtained in the wells was normalized using high (full enzyme activity, 0.7% DMSO) and low controls (no enzyme activity, 0.7% DMSO, no ATP). IC50's were determined by fitting a sigmoidal curve to % inhibition of control versus Log10 compound concentration.

Sequence of Recombinant Human NF-Kappab-Inducing Kinase (NIK/MAP3K14) (Q99558 whole entry): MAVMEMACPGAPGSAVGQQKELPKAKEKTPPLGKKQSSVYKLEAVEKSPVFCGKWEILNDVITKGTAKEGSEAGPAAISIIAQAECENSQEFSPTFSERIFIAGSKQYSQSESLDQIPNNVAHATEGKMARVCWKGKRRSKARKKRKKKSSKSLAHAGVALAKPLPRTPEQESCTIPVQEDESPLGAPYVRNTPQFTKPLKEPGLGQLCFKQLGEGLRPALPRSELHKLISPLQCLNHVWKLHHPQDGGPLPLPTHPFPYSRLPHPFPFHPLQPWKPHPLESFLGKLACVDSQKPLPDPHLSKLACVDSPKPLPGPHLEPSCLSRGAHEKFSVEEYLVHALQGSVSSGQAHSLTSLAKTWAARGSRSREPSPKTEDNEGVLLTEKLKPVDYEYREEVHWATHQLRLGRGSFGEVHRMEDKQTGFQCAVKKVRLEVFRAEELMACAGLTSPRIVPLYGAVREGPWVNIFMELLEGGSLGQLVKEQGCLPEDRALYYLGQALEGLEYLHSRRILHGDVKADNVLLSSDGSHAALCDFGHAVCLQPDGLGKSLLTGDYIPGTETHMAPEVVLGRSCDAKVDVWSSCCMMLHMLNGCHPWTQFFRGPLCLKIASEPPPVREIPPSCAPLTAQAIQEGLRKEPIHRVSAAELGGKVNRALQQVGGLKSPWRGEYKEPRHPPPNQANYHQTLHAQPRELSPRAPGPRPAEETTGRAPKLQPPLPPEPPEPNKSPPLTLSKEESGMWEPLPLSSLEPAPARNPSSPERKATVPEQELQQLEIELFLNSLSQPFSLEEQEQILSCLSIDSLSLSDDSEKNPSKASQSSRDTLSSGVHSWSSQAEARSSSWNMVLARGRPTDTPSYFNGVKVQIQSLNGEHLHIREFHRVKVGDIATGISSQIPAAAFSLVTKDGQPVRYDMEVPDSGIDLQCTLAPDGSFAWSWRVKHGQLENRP

| Compound | IC50 [1] | IC50 [2] |
| --- | --- | --- |
| CN1CCC(O)(c2cc(-c3cccc(-n4nc(C(N)=O)c5ccccc54)c3)on2)C1=O (racemic) [Example 167, (R,S)-1-(3-(3-(3-Hydroxy-1-methyl-2-oxopyrrolidin-3-yl)isoxazol-5-yl)phenyl)-1H-indazole-3-carboxamide] | 0.1 to 0.5 µM | < 0.1 µM |
| [2H]c1nc(N)c2nc(-c3cccc(-c4cc([C@]5(O)CCN(C)C5=O)on4)c3)ccc2n1 [Example 2, (R)-3-(3-(3-(4-Aminopyrido[3,2-d]pyrimidin-6-yl-2-d)phenyl)isoxazol-5-yl)-3-hydroxy-1-methylpyrrolidin-2-one] | 0.1 to 0.5 µM | < 0.1 µM |
| CN1CC[C@@](O)(c2cc(-c3cccc(-c4cccc5c4CNC5=O)c3)no2)C1=O [Example 59, (R)-4-(3-(5-(3-hydroxy-1-methyl-2-oxopyrrolidin-3-yl)isoxazol-3-yl)phenyl)isoindolin-1-one] | > 0.501 µM | > 0.501 µM |
| [2H]c1nc(N)c2nc(-c3cccc(-c4cc([C@@]5(O)CCN(C)C5=O)nn4C)c3)ccc2n1 (single isomer, unassigned) [Example 44] | > 0.501 µM | > 0.501 µM |
| CN1CC[C@@](O)(c2cc(-c3cccc(-c4nc(C(N)=O)c(N)s4)c3)no2)C1=O [Example 206, (R)-5-Amino-2-(3-(5-(3-hydroxy-1-methyl-2-oxopyrrolidin-3-yl)isoxazol-3-yl)phenyl)thiazole-4-carboxamide] | < 0.1 µM | < 0.1 µM |
| CN1CC[C@](O)(c2ncc(-c3cccc(-c4cccc(C(N)=O)n4)c3)s2)C1=O (single isomer, unassigned) [Example 28] | > 0.501 µM | 0.1 to 0.5 µM |
| CCn1ncc2cc(-c3cccc(-c4cc([C@]5(O)CCN(C)C5=O)on4)c3)cnc21 [Example 55, (R)-3-(3-(3-(1-Ethyl-1H-pyrazolo[3,4-b]pyridin-5-yl)phenyl)isoxazol-5-yl)-3-hydroxy-1-methylpyrrolidin-2-one] | > 0.501 µM | > 0.501 µM |
| CN1CC[C@@](O)(c2cc(-c3cccc(-c4cccc5c(=O)[nH]ccc45)c3)no2)C1=O [Example 82, (R)-5-(3-(5-(3-Hydroxy-1-methyl-2-oxopyrrolidin-3-yl)isoxazol-3-yl)phenyl)isoquinolin-1 (2H)-one] | > 0.501 µM | > 0.501 µM |
| CN1CC[C@@](O)(c2cc(-c3cccc(-c4cc5c[nH]nc5cn4)c3)no2)C1=O [Example 75, (R)-3-(3-(3-(2H-pyrazolo[3,4-c]pyridin-5-yl)phenyl)isoxazol-5-yl)-3-hydroxy-1-methylpyrrolidin-2-one] | > 0.501 µM | 0.1 to 0.5 µM |
| CN1CC[C@@](O)(c2cc(-c3cccc(-n4nc(C(N)=O)c5cc(-c6ccn(C)n6)ccc54)c3)no2)C1=O [Example 99, (R)-1-(3-(5-(3-Hydroxy-1-methyl-2-oxopyrrolidin-3-yl)isoxazol-3-yl)phenyl)-5-(1-methyl-1H-pyrazol-3-yl)-1H-indazole-3-carboxamide] | < 0.1 µM | < 0.1 µM |
| CN1CC[C@@](O)(c2cc(-c3cccc(-c4ncc5cn[nH]c5n4)c3)no2)C1=O [Example 226, (R)-3-(3-(3-(1H-Pyrazolo[3,4-d]pyrimidin-6-yl)phenyl)isoxazol-5-yl)-3-hydroxy-1-methylpyrrolidin-2-one] | > 0.501 µM | > 0.501 µM |
| CN1CC[C@@](O)(c2cc(-c3cccc(-c4nc(C(N)=O)c(Nc5cnn(C)c5)s4)c3)no2)C1=O [Example 211, (R)-2-(3-(5-(3-Hydroxy-1-methyl-2-oxopyrrolidin-3-yl)isoxazol-3-yl)phenyl)-5-((1-methyl-1H-pyrazol-4-yl)amino)thiazole-4-carboxamide] | < 0.1 µM | < 0.1 µM |
| CN1CC[C@@](O)(c2cc(-c3cccc(-c4ncnn5cccc45)c3)no2)C1=O [Example 52, (R)-3-Hydroxy-1-methyl-3-(3-(3-(pyrrolo[2,1-f][1,2,4]triazin-4-yl)phenyl)isoxazol-5-yl)pyrrolidin-2-one] | > 0.501 µM | 0.1 to 0.5 µM |
| CN1CC[C@@](O)(c2cc(-c3cccc(-c4ccc5ncn(C)c5c4)c3)no2)C1=O [Example 62, (R)-3-Hydroxy-1-methyl-3-(3-(3-(1-methyl-1H-benzo[d]imidazol-6-yl)phenyl)isoxazol-5-yl)pyrrolidin-2-one] | > 0.501 µM | > 0.501 µM |
| CN1CC[C@@](O)(c2cn(-c3cccc(-c4cccc(C(N)=O)n4)c3)nn2)C1=O [Example 14, (R)-6-(3-(4-(3-Hydroxy-1-methyl-2-oxopyrrolidin-3-yl)-1H-1,2,3-triazol-1-yl)phenyl)picolinamide] | > 0.501 µM | < 0.1 µM |
| CN1CC[C@@](O)(c2cc(-c3cccc(-c4ccnc(C(N)=O)n4)c3)no2)C1=O [Example 162, (R)-4-(3-(5-(3-Hydroxy-1-methyl-2-oxopyrrolidin-3-yl)isoxazol-3-yl)phenyl)pyrimidine-2-carboxamide] | > 0.501 µM | < 0.1 µM |
| CN1CC[C@@](O)(c2cc(-c3cccc(-c4cccc(C(N)=O)n4)c3)[nH]n2)C1=O (single isomer, unassigned) [Example 31] | > 0.501 µM | 0.1 to 0.5 µM |
| CN1CC[C@@](O)(c2cc(-c3cccc(-n4nc(C(N)=O)c5cc(C6CC6)ccc54)c3)no2)C1=O [Example 112, (R)-5-Cyclopropyl-1-(3-(5-(3-hydroxy-1-methyl-2-oxopyrrolidin-3-yl)isoxazol-3-yl)phenyl)-1H-indazole-3-carboxamide] | 0.1 to 0.5 µM | < 0.1 µM |
| CN1CC[C@@](O)(c2cc(-c3cccc(-c4nc(C(N)=O)c(CNC5CCCC5)s4)c3)no2)C1=O [Example 223, (R)-5-((Cyclopentylamino)methyl)-2-(3-(5-(3-hydroxy-1-methyl-2-oxopyrrolidin-3-yl)isoxazol-3-yl)phenyl)thiazole-4-carboxamide] | > 0.501 µM | < 0.1 µM |
| [2H]c1nc(N)c2nc(-c3cccc(-c4nc([C@]5(O)CCN(C)C5=O)co4)c3)ccc2n1 (single isomer, unassigned) [Example 41] | > 0.501 µM | > 0.501 µM |
| Cc1ncc2cc(-c3cccc(-c4cc([C@]5(O)CCN(C)C5=O)on4)c3)ccn12 [Example 60, (R)-3-hydroxy-1-methyl-3-(3-(3-(3-methylimidazo[1,5-a]pyridin-7-yl)phenyl)isoxazol-5-yl)pyrrolidin-2-one] | > 0.501 µM | > 0.501 µM |
| CN1CC[C@@](O)(c2cc(-c3cccc(-c4cccc5cnc(N)nc45)c3)no2)C1=O [Example 86, (R)-3-(3-(3-(2-Aminoquinazolin-8-yl)phenyl)isoxazol-5-yl)-3-hydroxy-1-methylpyrrolidin-2-one] | > 0.501 µM | < 0.1 µM |
| CN1CC[C@@](O)(c2cc(-c3cccc(-c4ccc(C(N)=O)o4)c3)no2)C1=O [Example 207, (R)-5-(3-(5-(3-Hydroxy-1-methyl-2-oxopyrrolidin-3-yl)isoxazol-3-yl)phenyl)furan-2-carboxamide] | > 0.501 µM | < 0.1 µM |
| CN1CC[C@@](O)(c2cc(-c3cccc(-c4cc(C5CC5)c(N)c(C(N)=O)n4)c3)no2)C1=O [Example 88, (R)-3-Amino-4-cyclopropyl-6-(3-(5-(3-hydroxy-1-methyl-2-oxopyrrolidin-3-yl)isoxazol-3-yl)phenyl)picolinamide] | < 0.1 µM | < 0.1 µM |
